Experimental data taken from patent publication US8563714B2, “Bridged spiro [2.4] heptane derivatives as ALX receptor and/or FPRL2 agonists” (Actelion Pharmaceuticals Ltd., priority 2009, dated 2013).

Tests used:
human FPRL2 = target: T1, human FPRL2 (Homo sapiens, UniProt P25089); assay: Intracellular calcium measurements (FLIPR), agonistic activity in HEK293-hFPRL2-Gα16 cells; assay type: cell-based; conditions: Fluo-4 calcium FLIPR, normalized to GLY14-Humanin 100 nM
T1 construct: expressed in transfected cells; host or cells: HEK293 (HEK293-hFPRL2-Gα16)
T1 sequence (P25089 1-353): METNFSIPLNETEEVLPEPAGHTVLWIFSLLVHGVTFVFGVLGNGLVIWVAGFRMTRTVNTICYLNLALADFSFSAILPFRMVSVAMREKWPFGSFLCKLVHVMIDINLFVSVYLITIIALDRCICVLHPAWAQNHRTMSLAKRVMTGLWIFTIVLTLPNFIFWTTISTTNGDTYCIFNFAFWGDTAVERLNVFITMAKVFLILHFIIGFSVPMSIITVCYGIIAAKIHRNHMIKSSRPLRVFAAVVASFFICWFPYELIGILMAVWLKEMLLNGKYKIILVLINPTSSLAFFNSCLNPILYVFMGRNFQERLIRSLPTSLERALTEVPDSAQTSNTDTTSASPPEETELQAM
Summary of the method: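 Peak values after baseline subtraction are expressed relative to 100 nM Gly14-Humanin; compounds diluted in assay buffer from 10 mM DMSO stocks.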

human ALX receptor = target: T2, human ALX receptor (Homo sapiens, UniProt P25090); assay: Intracellular calcium measurements (FLIPR), agonistic activity in HEK293-hALXR-Gα16 cells; assay type: cell-based; conditions: Fluo-4 calcium FLIPR, normalized to WKYMVm 10 nM
T2 construct: expressed in transfected cells; host or cells: HEK293 (HEK293-hALXR-Gα16)
T2 sequence (P25090 1-351): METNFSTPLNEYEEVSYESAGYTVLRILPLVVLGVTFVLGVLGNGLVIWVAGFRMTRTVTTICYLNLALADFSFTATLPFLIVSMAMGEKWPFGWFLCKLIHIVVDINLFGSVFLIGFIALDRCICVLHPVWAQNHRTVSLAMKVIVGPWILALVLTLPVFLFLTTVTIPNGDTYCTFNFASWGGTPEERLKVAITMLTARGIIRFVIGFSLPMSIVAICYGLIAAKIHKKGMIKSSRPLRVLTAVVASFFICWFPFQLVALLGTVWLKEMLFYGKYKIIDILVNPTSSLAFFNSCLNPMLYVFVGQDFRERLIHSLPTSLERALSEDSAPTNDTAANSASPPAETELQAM
Summary of the method: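 Agonist-induced calcium flux was recorded by FLIPR (488/540 nm) in HEK293-hALXR-Gα16 cells pre-loaded with Fluo-4 AM (1 μM, 60 min, 37°C). Peak signal above baseline, after subtracting buffer addition, was expressed relative to WKYMVm at 10 nM final.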

| EC50 (human FPRL2) [nM] | EC50 (human ALX receptor) [nM] | SMILES |
| --- | --- | --- |
| 72 | 10300 | COc1ccc(CCNC(=O)[C@H]2[C@H](C(=O)NCCCCN3CCCC3)[C@H]3C=C[C@@H]2C32CC2)cc1Br (racemic) [Example 384, (5R*)—N^5-(2-(3-Bromo-4-methoxyphenyl)ethyl)-(6R*)—N^6-(4-pyrrolidino-butyl)-(4S*,7R*)-[4,7-ethenylene-spiro[2.4]heptane]-5,6-dicarboxamide] |
| 27 | > 25000 | Cc1ccc(CCNC(=O)[C@H]2[C@H](C(=O)NCCCCN3CCCC3)[C@H]3C=C[C@@H]2C32CC2)c(C)c1 (racemic) [Example 385, (5R*)—N^5-(2-(2,4-Dimethylphenyl)ethyl)-(6R*)—N^6-(4-pyrrolidino-butyl)-(4S*,7R*)-[4,7-ethenylene-spiro[2.4]heptane]-5,6-dicarboxamide] |
| 872 | 1040 | CNCCNC(=O)[C@H]1[C@H](C(=O)NCc2nc(C(C)=O)cs2)[C@@H]2C=C[C@H]1C21CC1 (racemic) [Example 396, (5R*)—N^5-[(4-Acetyl-thiazol-2-yl)methyl]-(6R*)—N^6-(2-methylamino-ethyl)-(4S*,7R*)-[4,7-ethenylene-spiro[2.4]heptane]-5,6-dicarboxamide] |
| 99 | 11 | O=C(NCCCCN1CCCC1)[C@H]1[C@H](C(=O)Nc2ccc(C(F)(F)F)nc2)[C@@H]2C=C[C@H]1C21CC1 (racemic) [Example 422, (5R*)—N^5-(2-Trifluoromethyl-pyridin-5-yl)-(6R*)—N^6-(4-pyrrolidin-1-yl-butyl)-(4S*,7R*)-[4,7-ethenylene-spiro[2.4]heptane]-5,6-dicarboxamide] |
| 1160 | 0.34 | NCCCCNC(=O)[C@H]1[C@H](C(=O)Nc2ccc(Br)cc2)[C@@H]2C=C[C@H]1C21CC1 (relative stereo) [Example 5, (5R*)—N^5-(4-Bromophenyl)-(6R*)—N^6-(4-amino-butyl)-(4S*,7R*)-[4,7-ethenylene-spiro[2.4]heptane]-5,6-dicarboxamide] |
| 68 | 19 | Cc1nc(CCNC(=O)[C@H]2[C@H](C(=O)Nc3ccc(Br)cc3)[C@@H]3C=C[C@H]2C32CC2)[nH]c1C (relative stereo) [Example 64, (5R*)—N^5-(4-Bromophenyl)-(6R*)—N^6-(2-(4,5-dimethyl-1H-imidazol-2-yl)-ethyl)-(4S*,7R*)-[4,7-ethenylene-spiro[2.4]heptane]-5,6-dicarboxamide] |
| 7.4 | 77 | Cc1nc(CCNC(=O)[C@H]2[C@H](C(=O)Nc3ccc(Br)cc3)[C@H]3C=C[C@@H]2C32CC2)[nH]c1C (relative stereo) [Example 199, (5R*)—N^5-(2-(4,5-Dimethyl-1H-imidazol-2-yl)-ethyl)-(6R*)—N^6-(4-bromophenyl)-(4S*,7R*)-[4,7-ethenylene-spiro[2.4]heptane]-5,6-dicarboxamide] |
| 1480 | 19 | NCCCCNC(=O)[C@H]1[C@H](C(=O)Nc2ccc(Br)cc2)[C@H]2C=C[C@@H]1C21CC1 (relative stereo) [Example 339, (5R*)—N^5-(4-Aminobutyl)-(6R*)—N^6-(4-bromophenyl)-(4S*,7R*)-[4,7-ethenylene-spiro[2.4]heptane]-5,6-dicarboxamide] |
| 356 | 2.1 | O=C(Nc1ccc(Br)cc1)C1C(C(=O)NC2CCC(CN3CCCC3)CC2)C2C=CC1C21CC1 (single isomer, unassigned) [Example 218] |
| 398 | 208 | O=C(Nc1ccc(Br)cc1)C1C(C(=O)NC2CCC(CN3CCCC3)CC2)C2C=CC1C21CC1 (single isomer, unassigned) [Example 222] |
| 18200 | 855 | O=C(Nc1ncc(Br)s1)C1C(C(=O)NC2CCC(CO)CC2)C2CCC1C21CC1 (single isomer, unassigned) [Example 410] |
| 6520 | 61 | O=C(Nc1ncc(Br)s1)C1C(C(=O)NC2CCC(CO)CC2)C2CCC1C21CC1 (single isomer, unassigned) [Example 411] |
| 1150 | 0.13 | NCC1CCC(NC(=O)C2C(C(=O)Nc3ccc(Br)cc3)C3C=CC2C32CC2)CC1 (single isomer, unassigned) [Example 420] |
| 1700 | 13 | NCC1CCC(NC(=O)C2C(C(=O)Nc3ccc(Br)cc3)C3C=CC2C32CC2)CC1 (single isomer, unassigned) [Example 421] |
| 571 | 0.16 | NCCCCCNC(=O)C1C(C(=O)Nc2ccc(Br)cc2)C2C=CC1C21CC1 (stereo not drawn) [Example 1, (5R*)—N^5-(4-Bromophenyl)-(6R*)—N^6-(5-amino-pentyl)-(4S*,7R*)-[4,7-ethenylene-spiro[2.4]heptane]-5,6-dicarboxamide] |
| 46 | 0.1 | O=C(NCCCCN1CCCC1)[C@H]1[C@H](C(=O)Nc2ccc(Br)cc2)[C@@H]2C=C[C@H]1C21CC1 [Example 2, (5R)—N^5-(4-Bromophenyl)-(6R)—N^6-(4-pyrrolidin-1-yl-butyl)-(4S,7R)-[4,7-ethenylene-spiro[2.4]heptane]-5,6-dicarboxamide] |
| 1260 | 0.41 | CN(C)CCNC(=O)[C@H]1[C@H](C(=O)Nc2ccc(Br)cc2)[C@@H]2C=C[C@H]1C21CC1 [Example 6, (5R)—N^5-(4-Bromophenyl)-(6R)—N^6-(2-N,N-dimethyl-amino-ethyl)-(4S,7R)-[4,7-ethenylene-spiro[2.4]heptane]-5,6-dicarboxamide] |
| 1300 | 1 | O=C(NCCCO)[C@H]1[C@H](C(=O)Nc2ccc(Br)cc2)[C@@H]2C=C[C@H]1C21CC1 [Example 12, (5R)—N^5-(4-Bromophenyl)-(6R)—N^6-(3-hydroxy-propyl)-(4S,7R)-[4,7-ethenylene-spiro[2.4]heptane]-5,6-dicarboxamide] |
| 4620 | 1.1 | NC(=O)CCNC(=O)[C@H]1[C@H](C(=O)Nc2ccc(Br)cc2)[C@@H]2C=C[C@H]1C21CC1 [Example 13, (5R)—N^5-(4-Bromophenyl)-(6R)—N^6-(2-carbamoyl-ethyl)-(4S,7R)-[4,7-ethenylene-spiro[2.4]heptane]-5,6-dicarboxamide] |
| 1410 | 5 | COCCNC(=O)[C@H]1[C@H](C(=O)Nc2ccc(Br)cc2)[C@@H]2C=C[C@H]1C21CC1 [Example 31, (5R)—N^5-(4-Bromophenyl)-(6R)—N^6-(2-methoxy-ethyl)-(4S,7R)-[4,7-ethenylene-spiro[2.4]heptane]-5,6-dicarboxamide] |
| 3950 | 24 | COCCN(CCOC)C(=O)[C@H]1[C@H](C(=O)Nc2ccc(Br)cc2)[C@@H]2C=C[C@H]1C21CC1 [Example 63, (5R)—N^5-(4-Bromophenyl)-(6R)—N^6,N^6-bis-(2-methoxy-ethyl)-(4S,7R)-[4,7-ethenylene-spiro[2.4]heptane]-5,6-dicarboxamide] |
| 8050 | 373 | CNC(=O)C(NC(=O)C1C(C(=O)Nc2ccc(Br)cc2)C2C=CC1C21CC1)C(C)(C)C [Example 96, (5R*)—N^5-(4-Bromophenyl)-(6R*)—N^6—[(2S)-3,3-dimethyl-1-(methylamino)-1-oxobutan-2-yl]-(4S*,7R*)-[4,7-ethenylene-spiro[2.4]heptane]-5,6-dicarboxamide] |

| SMILES | EC50 (human FPRL2) [nM] | EC50 (human ALX receptor) [nM] |
| --- | --- | --- |
| CCCCNC(=O)[C@H]1[C@H](C(=O)Nc2ccc(Br)cc2)[C@@H]2C=C[C@H]1C21CC1 (relative stereo) [Example 74, (5R*)—N^5-(4-Bromophenyl)-(6R*)—N^6-(butyl)-(4S*,7R*)-[4,7-ethenylene-spiro[2.4]heptane]-5,6-dicarboxamide] | 18200 | 72 |
| NCCCCCNC(=O)[C@H]1[C@H](C(=O)Nc2ccc(Br)cc2)[C@H]2C=C[C@@H]1C21CC1 (relative stereo) [Example 340, (5R*)—N^5-(5-Aminopentyl)-(6R*)—N^6-(4-bromophenyl)-(4S*,7R*)-[4,7-ethenylene-spiro[2.4]heptane]-5,6-dicarboxamide] | 255 | 30 |
| CC(C)(C)OC(=O)NCCNC(=O)C1C(C(=O)Nc2ccc(Br)cc2)C2C=CC1C21CC1 (stereo not drawn) [Example 27, (5R*)—N^5-(4-Bromophenyl)-(6R*)—N^6-(2-tert-butoxycarbonyl-amino-ethyl)-(4S*,7R*)-[4,7-ethenylene-spiro[2.4]heptane]-5,6-dicarboxamide] | 1960 | 4.2 |
